We go through 15 molecules from patent publication US9701638B2, “Therapeutic hydroxyquinolones” (RUTGERS, THE STATE UNIVERSITY OF NEW JERSEY, priority 2012, dated 2017).

The experiment has as its target Pandemic 2009 H1N1 influenza A endonuclease (PAN domain, residues 1-204) (Influenza A virus (strain swl A/California/04/2009 H1N1), UniProt C3W5S0). As to the kind of experiment: Endonuclease assay (FAM/MGBNFQ fluorescent probe cleavage by PAN). The experiment is classed as biochemical, influenza A virus (pandemic 2009 H1N1). Particulars: endonuclease inhibition; 25 nM endonuclease, 50 nM probe, 37 degrees Celsius, fluorescence change over time. From the text: A TaqMan-like oligonucleotide was used containing a 6-carboxy-fluorescein (FAM) fluorophore at the 5′-end followed by 19 nucleotides and a minor groove binding non-fluorescent quencher (MGBNFQ, Applied Biosystems) at the 3′-end. When excited by light at a wavelength of 488 nm, MGBNFQ quenches the fluorescence of FAM via fluorescence resonance energy transfer. If the endonuclease cleaves the oligonucleotide, the quencher is no longer coupled to the fluorophore, and therefore, FAM fluoresces. This assay can be performed in a high-throughput (e.g. 96 well plate) format.
The reaction mixture is set up as a master mix with the buffer, probe, and protein on ice. […] Varioskan Fluorometer (Thermo Scientific), set to an excitation of 488 nm and emission of 518 nm, is used to measure the fluorescence of the samples at 37 degrees Celsius. Fluorescence is measured at various time points (5, 120, and 240 minutes) during the 37 degrees Celsius incubation. Activity/inhibition is calculated based on the change in fluorescence over time using Prism Graphpad non-linear regression analysis.
For orientation: IC50 means the point on the concentration scale where inhibition reaches its midpoint. Read a low IC50 as higher potency. `O=c1[nH]c2ccccc2c(Br)c1O` [Example 2, 4-bromo-3-hydroxyquinolin-2(1H)-one] gave an IC50 of 53 µM.
With `O=c1[nH]c2cccc(Br)c2cc1O` [Example 3, 5-bromo-3-hydroxyquinolin-2(1H)-one] the figure was 12.2 µM; with `O=c1[nH]c2ccc(Br)cc2cc1O` [Example 4, 6-bromo-3-hydroxyquinolin-2(1H)-one], 7.4 µM; with `O=c1[nH]c2cc(Br)ccc2cc1O` [Example 5, 7-bromo-3-hydroxyquinolin-2(1H)-one], 7.6 µM.
With `O=c1[nH]c2c(Br)cccc2cc1O` [Example 6, 8-bromo-3-hydroxyquinolin-2(1H)-one] the figure was 10.6 µM; with `O=c1[nH]c2ccccc2c(-c2ccc(F)cc2)c1O` [Example 7], 10.8 µM; with `O=c1[nH]c2cccc(-c3ccc(F)cc3)c2cc1O` [Example 8, 5-(4-fluorophenyl)-3-hydroxyquinolin-2(1H)-one], 3.3 µM.
The result for `O=c1[nH]c2ccc(-c3ccc(F)cc3)cc2cc1O` [Example 9, 6-(4-fluorophenyl)-3-hydroxyquinolin-2(1H)-one] reads 0.56 µM; that for `O=c1[nH]c2cc(-c3ccc(F)cc3)ccc2cc1O` [Example 10, 7-(4-fluorophenyl)-3-hydroxyquinolin-2(1H)-one], 0.56 µM; that for `O=c1[nH]c2c(-c3ccc(F)cc3)cccc2cc1O` [Example 11, 8-(4-fluorophenyl)-3-hydroxyquinolin-2(1H)-one], 4.7 µM.
`O=c1[nH]c2cc(-c3ccc(F)cc3)ccc2c(Br)c1O` [Example 12, 4-bromo-7-(4-fluorophenyl)-3-hydroxyquinolin-2(1H)-one] came in with an IC50 of 1.1 µM.
The result for `O=c1[nH]c2ccccc2c(-c2ccccc2)c1O` [Example 13, 4-Phenyl-3-hydroxyquinolin-2(1H)-one] reads more than 20 µM.
With `Cc1c(O)c(=O)[nH]c2ccccc12` [Example 14, 4-Methyl-3-hydroxyquinolin-2(1H)— one], the IC50 was more than 100 µM.
The result for `O=c1[nH]c2cc(-c3ccc(F)cc3)ccc2c(-c2ccccc2)c1O` [Example 15, 4-Phenyl-7-(4-fluorophenyl)-3-hydroxyquinolin-2(1H)-one] reads 2 µM; that for `Cc1c(O)c(=O)[nH]c2cc(-c3ccc(F)cc3)ccc12` [Example 16], 13.2 µM.
